# Laboratory results published in patent US7635706B2, “5HT4-antagonistic 4-(aminomethyl)-piperidine benzamides” (Janssen Pharmaceutica NV, priority 2003, dated 2009).
# Assay: Metabolic stability in liver microsomes with NADPH-generating system, LC-MS analysis
# Format: in vitro ADME
# Details: 15 minutes incubation, compound 5 μM, active microsomes 1 mg/ml
# Experimental: Sub-cellular tissue preparations were made according to Gorrod et al. (Xenobiotica 5: 453-462, 1975) by centrifugal separation after mechanical homogenization of tissue. Liver tissue was rinsed in ice-cold 0.1 M Tris-HCl (pH 7.4) buffer to wash excess blood. Tissue was then blotted dry, weighed and chopped coarsely using surgical scissors. The tissue pieces were homogenized in 3 volumes of ice-cold 0.1 M phosphate buffer (pH 7.4).
# Tissue homogenates were centrifuged at 9000×g for 20 minutes at 4° C. The resulting supernatant was stored at −80° C. and is designated ‘S9’.
# The S9 fraction can be further centrifuged at 100.000×g for 60 minutes (4° C.). The resulting supernatant was carefully aspirated, aliquoted and designated ‘cytosol’. The pellet was re-suspended in 0.1 M phosphate buffer (pH 7.4) in a final volume of 1 ml per 0.5 g original tissue weight and designated ‘microsomes’.
# All sub-cellular fractions were aliquoted, immediately frozen in liquid nitrogen and stored at −80° C. until use.
# For the samples to be tested, the incubation mixture contained PBS (0.1M), compound (5 μM), microsomes (1 mg/ml) and a NADPH-generating system (0.8 mM glucose-6-phosphate, 0.8 mM magnesium chloride and 0.8 Units of glucose-6-phosphate dehydrogenase). Control samples contained the same material but the microsomes were replaced by heat inactivated (10 minutes at 95 degrees Celsius) microsomes. Recovery of the compounds in the control samples was always 100%.
# The mixtures were preincubated for 5 minutes at 37 degrees Celsius. The reaction was started at time point zero (t=0) by addition of 0.8 mM NADP and the samples were incubated for 60 minutes (P60). The reaction was terminated by the addition of 2 volumes of DMSO. Then the samples were centrifuged for 10 minutes at 900×g and the supernatants were stored at room temperature for no longer as 24 hours before analysis. All incubations were performed in duplo. Analysis of the supernatants was performed with LC-MS analysis. Elution of the samples was performed on a Xterra MS C18 (50×4.6 mm, 5 μm, Waters, US). An Alliance 2790 (Supplier: Waters, US) HPLC system was used. Elution was with buffer A (25 mM ammoniumacetate (pH 5.2) in H2O/acetonitrile (95/5)), solvent B being acetonitrile and solvent C methanol at a flow rate of 2.4 ml/min. The gradient employed was increasing the organic phase concentration from 0% over 50% B and 50% C in 5 min up to 100% B in 1 minute in a linear fashion and organic phase concentration was kept stationary for an additional 1.5 minutes. Total injection volume of the samples was 25 μl.
# A Quatro triple quadrupole mass spectrometer fitted with and ESP source was used as detector. The source and the desolvation temperature were set at 120 and 350° C. respectively and nitrogen was used as nebuliser and drying gas. Data were acquired in positive scan mode (single ion reaction). Cone voltage was set at 10 V and the dwell time was 1 second.
# Metabolic stability was expressed as % metabolism of the compound after 15 or 60 minutes (equation given as example) of incubation in the presence of active microsomes (E(act))
row,% metabolised compound,SMILES
1,10 (15″) %,O=C(NC[C@@H]1CCN(CCC2OCCO2)C[C@H]1O)c1cc(Cl)c(Cl)c2c1OCCCO2 [Co. No. 88]
2,5 (15″) %,"O=C(NC[C@@H]1CCN(CCCO)C[C@H]1O)c1cc(Cl)cc2c1OCCCO2 [WO-00/37461 Co. No. 144, reference compound]"
3,4 (15″) %,O=C(NC[C@@H]1CCN(CCCO)C[C@H]1O)c1cc(Cl)c(Br)c2c1OCCCO2 [Co. No. 24]
4,26.5 (15″) %,"O=C(NC[C@@H]1CCN(CCC2OCCO2)C[C@H]1O)c1cc(Cl)cc2c1OCCCO2 [WO-00/37461 Co. No. 143, reference compound]"

# Same assay, conditions: 60 minutes incubation, compound 5 μM, active microsomes 1 mg/ml
row,% metabolised compound,SMILES
1,68 (60″) %,"CCCCN1CC[C@@H](CNC(=O)c2cc(Cl)cc3c2OCCCO3)[C@H](O)C1 [WO-00/37461 Co. No. 119, reference compound]"
2,51 (60″) %,CCCCN1CC[C@@H](CNC(=O)c2cc(Cl)c(Br)c3c2OCCCO3)[C@H](O)C1 [Co. No. 22]
